Literature values as cited in patent US20110268798A1, “ORALLY DISNTEGRATING TABLETS FOR THE TREATMENT OF PAIN” (ADD ADVANCED DRUG DELIVERY TECHNOLOGIES LTD, priority 2009, published 2011).

Assays:
[1] = not given; remark: listed apart in the source

Structure (SMILES) | solubility in alcohol (alcohol) | solubility in chloroform (chloroform) | solubility in ether | solubility in water | stability in air / moisture ([1]; dry air, moisture) | stability versus pH ([1]; pH) | stability versus temperature ([1]; temperature) | solubility in methylene chloride (methylene chloride)
CC(=O)Oc1ccccc1C(=O)O [Acetylsalicylic acid, 2(acetyloxy)benzoic acid] | freely soluble | soluble | soluble | slightly soluble | stable in dry air but hydrolyses in contact with moisture to acetic and salicylic acids | pH-dependent stability profile | sensitive to temperature | 
CC(=O)Nc1ccc(O)cc1 [Acetaminophen, N-(4-hydroxyphenyl)acetamide] |  |  | very slightly soluble | sparingly soluble |  |  |  | very slightly soluble
